Measured values: PubChem BioAssay (NCI)
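Where inhibition never reached the appropriate level, the endpoint shown equals the highest concentration tested. Otherwise, values were interpolated linearly from a five-concentration, 48-hour dose response in 96-well plates. GI50 marks 50% less growth. TGI: total growth inhibition.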

Legend:
Experiment in all cases: inhibition of tumour cell growth, NCI panel, 48 h
[1] = system: RPMI-8226 leukemia
[2] = system: CAKI-1 renal
[3] = system: ACHN renal
[4] = system: TK-10 renal
[5] = system: NCI-H226 lung
[6] = system: HCC-2998 colon
[7] = system: SW-620 colon
[8] = system: NCI-H522 lung
[9] = system: SK-MEL-2 melanoma
[10] = system: SF-539 CNS
[11] = system: SK-OV-3 ovarian
[12] = system: RXF 393 renal
[13] = system: A498 renal
[14] = system: UACC-62 melanoma
[15] = system: A549 NSCLC
[16] = system: HT29 colon
[17] = system: HS 578T breast
[18] = system: LOX IMVI melanoma
[19] = system: UO-31 renal
[20] = system: NCI/ADR-RES ovarian
[21] = system: HOP-92 NSCLC
[22] = system: KM12 colon
[23] = system: MDA-MB-231 breast
[24] = system: U251 CNS
[25] = system: 786-0 renal
[26] = system: NCI-H460 lung
[27] = system: SF-268 CNS
[28] = system: MDA-MB-435
[29] = system: SK-MEL-28 melanoma
[30] = system: SF-295 CNS
[31] = system: OVCAR-8 ovarian
[32] = system: DU-145 prostate
[33] = system: COLO 205 colon
[34] = system: MCF7 breast
[35] = system: SNB-75 CNS
[36] = system: T-47D breast
[37] = system: SR leukemia
[38] = system: UACC-257 melanoma
[39] = system: K-562 leukemia
[40] = system: HCT-116 colon
[41] = system: OVCAR-4 ovarian
[42] = system: CCRF-CEM leukemia
[43] = system: OVCAR-3 ovarian
[44] = system: M14 melanoma
[45] = system: OVCAR-5 ovarian
[46] = system: SK-MEL-5 melanoma
[47] = system: SNB-19 CNS
[48] = system: BT-549 breast
[49] = system: SN12C renal
[50] = system: MOLT-4 leukemia
[51] = system: HCT-15 colon
[52] = system: EKVX NSCLC
[53] = system: PC-3 prostate
[54] = system: IGROV1 ovarian
[55] = system: MALME-3M melanoma
[56] = system: HL-60(TB) leukemia
[57] = system: HOP-62 NSCLC

## CN1CCN(Cc2ccc(NC(=O)c3cncc(C#Cc4cnc(N)nc4)c3)cc2C(F)(F)F)CC1
[1]
  GI50: 0.66 µM
  TGI: 6.43 µM
[2]
  GI50: 0.15 µM
  TGI: 0.763 µM
[3]
  GI50: 0.244 µM
  TGI: 5.23 µM
[4]
  GI50: 0.81 µM
  TGI: 7.17 µM
[5]
  GI50: 0.203 µM
  TGI: 2.22 µM
[6]
  GI50: 1.35 µM
  TGI: 9.53 µM
[7]
  GI50: 0.49 µM
  TGI: 6.41 µM
[8]
  GI50: 0.376 µM
  TGI: 6.93 µM
[9]
  GI50: 0.11 µM
  TGI: 0.339 µM
[10]
  GI50: 0.263 µM
  TGI: 3.78 µM
[11]
  GI50: 0.174 µM
  TGI: 1.12 µM
[12]
  GI50: 0.346 µM
  TGI: 4.18 µM
[13]
  GI50: 0.228 µM
  TGI: 1.14 µM
[14]
  GI50: 0.298 µM
  TGI: 3.39 µM
[15]
  GI50: 1.01 µM
  TGI: 8.74 µM
[16]
  GI50: 0.351 µM
  TGI: 6.01 µM
[17]
  GI50: 0.331 µM
  TGI: 2.29 µM
[18]
  GI50: 0.189 µM
  TGI: 0.846 µM
[19]
  GI50: 0.396 µM
  TGI: 2.88 µM
[20]
  GI50: 3.56 µM
  TGI: 19.9 µM
[21]
  GI50: 0.157 µM
  TGI: 1.23 µM
[22]
  GI50: 0.0521 µM
  TGI: 7.27 µM
[23]
  GI50: 0.258 µM
  TGI: 3.46 µM
[24]
  GI50: 0.521 µM
  TGI: 9.28 µM
[25]
  GI50: 0.849 µM
  TGI: 5.79 µM
[26]
  GI50: 0.306 µM
  TGI: 6.23 µM
[27]
  GI50: 0.93 µM
  TGI: 8.72 µM
[28]
  GI50: 0.247 µM
  TGI: 5.56 µM
[29]
  GI50: 0.56 µM
  TGI: 3.54 µM
[30]
  GI50: 1.43 µM
  TGI: 9.22 µM
[31]
  GI50: 1.07 µM
  TGI: 9.57 µM
[32]
  GI50: 0.385 µM
  TGI: 11.4 µM
[33]
  GI50: 0.398 µM
  TGI: 5.61 µM
[34]
  GI50: 1.47 µM
  TGI: 11.6 µM
[35]
  GI50: 0.123 µM
  TGI: 1 µM
[36]
  GI50: 0.916 µM
  TGI: 50 µM
[37]
  GI50: 0.425 µM
  TGI: 8.48 µM
[38]
  GI50: 0.773 µM
  TGI: 6.12 µM
[39]
  GI50: 0.005 µM
  TGI: 50 µM
[40]
  GI50: 0.231 µM
  TGI: 5.16 µM
[41]
  GI50: 0.553 µM
  TGI: 9.75 µM
[42]
  GI50: 1.16 µM
  TGI: 16 µM
[43]
  GI50: 0.957 µM
  TGI: 10.1 µM
[44]
  GI50: 0.178 µM
  TGI: 1.28 µM
[45]
  GI50: 0.994 µM
  TGI: 9.76 µM
[46]
  GI50: 1.18 µM
  TGI: 5.7 µM
[47]
  GI50: 4.38 µM
  TGI: 27.6 µM
[48]
  GI50: 1.24 µM
  TGI: 5.47 µM
[49]
  GI50: 0.332 µM
  TGI: 5.74 µM
[50]
  GI50: 0.449 µM
  TGI: 11.6 µM
[51]
  GI50: 0.556 µM
  TGI: 12.9 µM
[52]
  GI50: 1.2 µM
  TGI: 14.6 µM
[53]
  GI50: 0.821 µM
  TGI: 17.2 µM
[54]
  GI50: 0.189 µM
  TGI: 5.21 µM
[55]
  GI50: 0.15 µM
  TGI: 0.653 µM
[56]
  GI50: 0.283 µM
  TGI: 3.59 µM
[57]
  GI50: 0.952 µM
  TGI: 6.43 µM

## C#Cc1nc(/C=C/CCCCCCC(=O)NO)cs1
[1]
  GI50: 1.41 µM
  TGI: 5.21 µM
[4]
  GI50: 2.29 µM
  TGI: 16.3 µM
[5]
  GI50: 13.3 µM
  TGI: 53.6 µM
[6]
  GI50: 11.6 µM
  TGI: 36.9 µM
[7]
  GI50: 2.14 µM
  TGI: 4.9 µM
[8]
  GI50: 3.05 µM
  TGI: 17.9 µM
[9]
  GI50: 20.6 µM
  TGI: 85.5 µM
[10]
  GI50: 1.59 µM
  TGI: 3.05 µM
[11]
  GI50: 5.12 µM
  TGI: 28.3 µM
[13]
  GI50: 3.7 µM
  TGI: 16.8 µM
[14]
  GI50: 3.1 µM
  TGI: 15 µM
[15]
  GI50: 6.23 µM
  TGI: > 100 µM
[16]
  GI50: 4.26 µM
  TGI: 31.4 µM
[17]
  GI50: 3.59 µM
  TGI: 76.3 µM
[18]
  GI50: 0.185 µM
  TGI: 0.352 µM
[20]
  GI50: 2.15 µM
  TGI: 13.6 µM
[21]
  GI50: 1.18 µM
  TGI: 2.76 µM
[22]
  GI50: 5.32 µM
  TGI: 42.6 µM
[23]
  GI50: 2.25 µM
  TGI: 5.13 µM
[24]
  GI50: 3.47 µM
  TGI: 18.6 µM
[25]
  GI50: 6.72 µM
  TGI: 47.7 µM
[26]
  GI50: 4.16 µM
  TGI: > 100 µM
[27]
  GI50: 3.89 µM
  TGI: 14.9 µM
[28]
  GI50: 5.67 µM
  TGI: > 100 µM
[29]
  GI50: 9.61 µM
  TGI: 94.7 µM
[30]
  GI50: 5.52 µM
  TGI: 19.3 µM
[31]
  GI50: 3.45 µM
  TGI: > 100 µM
[32]
  GI50: 3.01 µM
  TGI: > 100 µM
[33]
  GI50: 4.73 µM
  TGI: 18 µM
[34]
  GI50: 5.03 µM
  TGI: > 100 µM
[35]
  GI50: 1.74 µM
  TGI: 9.61 µM
[36]
  GI50: 3.08 µM
  TGI: 33.8 µM
[38]
  GI50: 3.39 µM
  TGI: > 100 µM
[39]
  GI50: 2.95 µM
  TGI: > 100 µM
[40]
  GI50: 2.7 µM
  TGI: 10.5 µM
[41]
  GI50: 2.31 µM
  TGI: 6.34 µM
[44]
  GI50: 5.18 µM
  TGI: 61.4 µM
[45]
  GI50: 3.07 µM
  TGI: > 100 µM
[46]
  GI50: 4.81 µM
  TGI: 17.4 µM
[47]
  GI50: 16 µM
  TGI: > 100 µM
[48]
  GI50: 4.05 µM
  TGI: 49.5 µM
[49]
  GI50: 7.84 µM
  TGI: > 100 µM
[51]
  GI50: 7.53 µM
  TGI: > 100 µM
[52]
  GI50: 22.7 µM
  TGI: > 100 µM
[53]
  GI50: 5.27 µM
  TGI: > 100 µM
[54]
  GI50: 1.63 µM
  TGI: 3.38 µM
[55]
  GI50: 1.53 µM
  TGI: 3.12 µM
[57]
  GI50: 5.47 µM
  TGI: 58.7 µM
